The NIST ThermoML archive (doi:10.1021/je300347z)

Legend:
[1] = refractive index (Na D-line) (dimensionless); conditions: 293.2 K; 101.33 kPa; Liquid; Standard Abbe refractometry
[2] = Liquid; for mass density: 293.2 K, 101.33 kPa, Vibrating tube method

CC(C)O [propan-2-ol]
Conditions	mass density [kg/m3]	refractive index
[1]	–	1.3771
[2]	785.42	–

[2]
Conditions	vapor or sublimation pressure [kPa]
307.1 K	10
319.9 K	20
328 K	30
334 K	40
334.1 K	40
338.8 K	50
342.9 K	60
346.5 K	70
349.7 K	80
352.5 K	90
355 K	100

C=C(C)[C@H]1CC=C(C)CC1 [(R)-1-methyl-4-(1-methylethenyl)cyclohexene]
Conditions	mass density [kg/m3]	refractive index
[1]	–	1.473
[2]	814.83	–

[2]
Conditions	vapor or sublimation pressure [kPa]
375.5 K	10
394.5 K	20
403.2 K	27.48
406.5 K	30
415.7 K	40
415.8 K	40
423.2 K	49.74
423.4 K	50
429.8 K	60
435.5 K	70
440.5 K	80
445 K	90
450 K	100

CCO [ethanol]
Conditions	mass density [kg/m3]	refractive index
[1]	–	1.3612
[2]	789.91	–

[2]
Conditions	vapor or sublimation pressure [kPa]
302.4 K	10
315.4 K	20
323.6 K	30
329.7 K	40
330 K	40
334.7 K	50
338.8 K	60
342.4 K	70
345.6 K	80
348.5 K	90
351.1 K	100

CCCCCO [pentan-1-ol]
Conditions	mass density [kg/m3]	refractive index
[1]	–	1.4097
[2]	814.16	–

[2]
Conditions	vapor or sublimation pressure [kPa]
354 K	10
368.7 K	20
378 K	30
384.7 K	40
385.3 K	40
391 K	50
395.9 K	60
400.2 K	70
403.9 K	80
407.3 K	90
410.4 K	100

CCCO [propan-1-ol]
Conditions	mass density [kg/m3]	refractive index
[1]	–	1.3851
[2]	801.33	–

[2]
Conditions	vapor or sublimation pressure [kPa]
319.6 K	10
332.8 K	20
341.3 K	30
347.7 K	40
352.7 K	50
357.1 K	60
360.8 K	70
364.1 K	80
367.1 K	90
369.8 K	100

CCCCCCO [hexan-1-ol]
Conditions	mass density [kg/m3]	refractive index
[1]	–	1.4207
[2]	816.31	–

[2]
Conditions	vapor or sublimation pressure [kPa]
369.8 K	10
385.7 K	20
395.7 K	30
403.2 K	40
403.4 K	40
409.3 K	50
414.5 K	60
419 K	70
423 K	80
426.5 K	90
429.6 K	99.7

CCCCO [butan-1-ol]
Conditions	mass density [kg/m3]	refractive index
[1]	–	1.3993
[2]	810.28	–

[2]
Conditions	vapor or sublimation pressure [kPa]
337.2 K	10
351.1 K	20
360 K	30
366.7 K	40
372.1 K	50
376.6 K	60
380.5 K	70
384 K	80
387.2 K	90
390.1 K	100
